# Laboratory results published in EP4613271A1, “USE OF 1-METHYLNICOTINAMIDE IN PREPARATION OF ANTI-VASCULAR CALCIFICATION DRUG” (The Eight Affiliated Hospital, Sun Yat-Sen University, priority 2023, dated 2024).
# Key:
# [1] = system: Human vascular smooth muscle cells; assay: bleomycin (BLM) and phosphorus-induced calcification of vascular smooth muscle cells under aging conditions (alizarin red staining, calcium content); format: cell-based; conditions: 100 µM 1-methylnicotinamide, 2.6 mM phosphorus, 1 µg/mL bleomycin, 7 days
# Protocol: (§1) • 1. In this example, bleomycin (BLM) and phosphorus were added to induce vascular calcification in vascular smooth muscle cells, and 1-methylnicotinamide or nicotinamide N-methyltransferase inhibitor (NNMTi) was added for intervention for 7 days, and then alizarin red staining was performed to evaluate the inhibitory effect of 1-methylnicotinamide on vascular calcification. The specific procedure was as follows. Human vascular smooth muscle cells of passages 8-12 were plated in a 12-well plate at 1×10^5/well, and 1 mL of DMEM complete medium was added to each well. On the first day after plating, 2.6 mM phosphorus was added to induce calcification, and 100 µM 1-methylnicotinamide or 25 µM nicotinamide N-methyltransferase inhibitor (NNMTi) was added for intervention. […] After 7 days of intervention with 1-methylnicotinamide or nicotinamide N-methyltransferase inhibitor (NNMTi), a calcium content was determined. […]
# (§2) Human vascular smooth muscle cells of passages 8-12 were plated in a 6-well plate at 2×10^5/well, and 2 mL of DMEM complete medium was added to each well. […] On the seventh day, the calcium content was determined.
# [2] = system: Human vascular smooth muscle cells; assay: cisplatin (DDP) and phosphorus-induced calcification of vascular smooth muscle cells under aging conditions (alizarin red staining, calcium content); format: cell-based; conditions: 100 µM 1-methylnicotinamide, 2.6 mM phosphorus, 7 days
# Protocol: 3. To further verify the effect of 1-methylnicotinamide in inhibiting vascular calcification under aging conditions, cisplatin (DDP) and phosphorus were added to induce calcification in vascular smooth muscle cells. After 7 days of intervention with 1-methylnicotinamide or nicotinamide N-methyltransferase inhibitor (NNMTi), alizarin red staining was performed to further evaluate the inhibitory effect of 1-methylnicotinamide on vascular calcification under aging conditions. The specific procedure was as follows.
# Human vascular smooth muscle cells of passages 8-12 were plated in a 12-well plate at 1×10^5/well, and 1 mL of DMEM complete medium was added to each well. On the first day after plating, 2.6 mM phosphorus was added to induce calcification, and 100 µM 1-methylnicotinamide or 25 µM nicotinamide N-methyltransferase inhibitor (NNMTi) was added for intervention. […]
# 4. Cisplatin and phosphorus were added to induce calcification in vascular smooth muscle cells, and 1-methylnicotinamide or nicotinamide N-methyltransferase inhibitor (NNMTi) was added for intervention for 7 days, and then the calcium content was determined. […]
# as §2
# [3] = system: Human vascular smooth muscle cells; assay: phosphorus-induced calcification of vascular smooth muscle cells (alizarin red staining, calcium content); format: cell-based; conditions: 100 µM 1-methylnicotinamide, 2.6 mM phosphorus, 7 days
# Protocol: as §1, with “example,” for “example, bleomycin (BLM) and”, “phosphorus was” for “phosphorus were”, “intervention. On the fourth day, the DMEM complete medium was replaced and 2.6 mM phosphorus was added to induce calcification again, and 100 µM 1-methylnicotinamide or 25 µM nicotinamide N-methyltransferase inhibitor (NNMTi) was added for intervention.” for “intervention.”
# as §2
# [4] = system: Naturally aged C57BL/6 mice; assay: high-calcium and high-adenine diet-induced vascular calcification in aged mice (aorta alizarin red staining, IHC of aortic rings); format: in vivo; conditions: 2.5 months, 25 months old mice
# Protocol: • 1. In this example, a high-calcium and high-adenine diet was used to induce vascular calcification in aged mice. After intervention by using 1-methylnicotinamide for 2.5 months, alizarin red staining was performed on the aorta of the mice to evaluate the inhibitory effect of 1-methylnicotinamide on vascular calcification in aged mice. The specific procedure was as follows.
# Naturally aged C57BL/6 mice (25 months old) were randomly divided into a control group (n=10), a high-calcium and high-adenine group (n=10), and a high-calcium and high-adenine + 1-methylnicotinamide group (100 mg/kg/day) (n=10), and were fed with normal feed, high-calcium and high-adenine feed, and high-calcium and high-adenine feed and 1-methylnicotinamide respectively, and water is normally provided for each group. The mice were killed after 2.5 months, and the aortas of the mice were obtained for alizarin red staining.
# 2. To further verify the effect of 1-methylnicotinamide in inhibiting vascular calcification in aged mice, a high-calcium and high-adenine diet was used to induce vascular calcification in aged mice. After 2.5 months of intervention with 1-methylnicotinamide, the IHC staining was performed on α-smooth muscle actin (α-SMA) and bone morphogenetic protein 2 (BMP2) in mouse aortic rings to further evalaute the inhibitory effect of 1-methylnicotinamide on vascular calcification in aged mice. […]
smiles,measurement,setting,value
C[n+]1cccc(C(N)=O)c1 [1-methylnicotinamide],alizarin red staining,[1]; Panel A of Fig. 3,could significantly inhibit the calcification of bleomycin-induced aged vascular smooth muscle cells
same,calcium content,[1]; Panel B of Fig. 3,had the effect of inhibiting vascular calcification under aging conditions
same,calcium content,"[2]; 1 µM cisplatin, Panel D of Fig. 3",had the effect of inhibiting vascular calcification under aging conditions
same,alizarin red staining,"[2]; 1 µg/mL cisplatin, Panel C of Fig. 3",could significantly inhibit the calcification of cisplatin-induced aged vascular smooth muscle cells
same,alizarin red staining,[3]; Fig. 1,could significantly inhibit the occurrence of vascular calcification
same,calcium content,[3]; Fig. 2,had the effect of inhibiting vascular calcification
same,alizarin red staining of the aorta,"[4]; 100 mg/kg/day 1-methylnicotinamide with high-calcium and high-adenine feed, Panel A of Fig. 4",could significantly inhibit vascular calcification in aged mice
same,IHC staining of α-SMA and BMP2 in aortic rings,"[4]; 1-methylnicotinamide with high-calcium and high-adenine feed, Panel B of Fig. 4",could significantly inhibit vascular calcification in aged mice
